Series [1] relates to L1210. Briefly: Cytotoxicity against mouse L1210 cells assessed as inhibition of cell viability after 72 hrs by MTT assay. The class given is functional, cell-based. To be noted: L1210, 72 h. (Tetrazolium dyes change colour on reduction, which living cells bring about.)
The test system of series [2] is L1210. Briefly: Antitumor activity against mouse L1210 cells assessed as inhibition of [3H]thymidine incorporation after 72 hrs. Type of series: functional, cell-based. In general terms: Uptake of a labelled nucleoside into DNA is a usual measure of proliferation.
The subject of series [3] is L1210. Briefly: Cytotoxicity against mouse L1210 cells assessed as inhibition of cell viability after 72 hrs by MTT assay relative to control. Type of series: functional. Also noted: concentration or dose not given beside the values. The settings on record: values are per cent of control.
In series [4] the test system is L1210. Briefly: Ratio of IC50 for mouse L1210 cells by MTT assay to EC50 for mouse L1210 cells by [3H]thymidine incorporation assay. Type of series: functional.
A further series has as its system PBMC. Put plainly: Cytotoxicity against human PBMC assessed as inhibition of cell viability after 72 hrs by MTT assay. The class given is cell-based.
For series [5], the system named is L1210. Briefly: Antitumor activity against mouse L1210 cells assessed as inhibition of [3H]thymidine incorporation at 0.5 mg/ml after 72 hrs relative to control. The settings on record: values are per cent of control. The class given is functional.
Series [6] can be described thus: Cytotoxicity against human PBMC assessed as inhibition of cell viability at 0.5 mg/ml after 72 hrs by MTT assay. The class given is cell-based. The settings on record: PBMC (peripheral blood mononuclear cells), read-out: INH.

The results in this text go back to ChEMBL document CHEMBL3351506, “Synthesis and antiproliferative activity of conjugates of adenosine with muramyl dipeptide and nor-muramyl dipeptide derivatives” (Bioorg Med Chem Lett, 2014).

As for `CC(=O)N[C@H]1[C@@H](OCc2ccccc2)O[C@H](CO)[C@@H](O)[C@@H]1OCC(=O)N[C@H](C)C(=O)N[C@H](CCC(=O)O)C(N)=O`, the IC50 – broadly, the concentration that gives 50% inhibition – was 287 µM in the series on L1210 [1] and 335 µM with PBMC. The concentration giving a half-maximal response (EC50) – broadly, the concentration at which the effect is half-maximal – in the series on L1210 [2] came to 363 µM. In addition, in the series with L1210 [3], the “viability, % of control” value turned out to be 19.97%. Also, in the series with L1210 [4], the “Ratio IC50/EC50” value was 36.6. Also, the growth, % of control at 500 µg/mL with L1210 [5] was 0.55%.
Regarding `CC(=O)N[C@H]1[C@@H](OCc2ccccc2)O[C@H](CO)[C@@H](O)[C@@H]1OCC(=O)N[C@H](CO)C(=O)N[C@H](CCC(=O)O)C(N)=O`, the cytotoxicity at 72 h, 0.5 mg/ml in series [6] is under 50%. Also, the IC50 with L1210 [1] turned out to be 314 µM; in the series on PBMC it was 858 µM. Moreover, the EC50 in the series on L1210 [2] turned out to be 290 µM. The “viability, % of control” value in the series on L1210 [3] amounted to 14.68%. The “Ratio IC50/EC50” value in the series with L1210 [4] is on record as 19.3. Moreover, the growth, % of control at 500 µg/mL with L1210 [5] was 0.76%.
With `CC(=O)N[C@H]1[C@@H](OCc2ccccc2)O[C@H](CO)[C@@H](O)[C@@H]1O[C@H](C)C(=O)N[C@H](C)C(=O)N[C@H](CCC(=O)NCCNc1ncnc2c1ncn2[C@@H]1O[C@H](CO)[C@@H](O)[C@H]1O)C(N)=O`, the IC50 in the series with L1210 [1] amounted to 287 µM; in the series on PBMC, 389 µM. Further, the EC50 with L1210 [2] came out at 517 µM. Moreover, the “viability, % of control” value in the series on L1210 [3] is reported as 35.91%. Besides, the “Ratio IC50/EC50” value in the series with L1210 [4] amounted to 3.7. The growth, % of control at 500 µg/mL in the series with L1210 [5] was 9.75%.
`CC[C@@H](NC(=O)[C@@H](C)O[C@H]1[C@H](O)[C@@H](CO)O[C@H](OCc2ccccc2)[C@@H]1NC(C)=O)C(=O)N[C@H](CCC(=O)NCCNc1ncnc2c1ncn2[C@@H]1O[C@H](CO)[C@@H](O)[C@H]1O)C(N)=O`: the IC50 in the series with L1210 [1] stood at 220 µM; in the series with PBMC, 439 µM. The EC50 in the series with L1210 [2] stood at 446 µM. In the series on L1210 [3], the “viability, % of control” value came out at 29.01%. In the series with L1210 [4], the “Ratio IC50/EC50” value is 33.8. The growth, % of control at 500 µg/mL in the series with L1210 [5] was determined as 0.86%.
`CC(=O)N[C@H]1[C@@H](OCc2ccccc2)O[C@H](CO)[C@@H](O)[C@@H]1O[C@H](C)C(=O)N1CCC[C@@H]1C(=O)N[C@H](CCC(=O)NCCNc1ncnc2c1ncn2[C@@H]1O[C@H](CO)[C@@H](O)[C@H]1O)C(N)=O`: the IC50 was found to be 311 µM in the series with L1210 [1] and 271 µM in the series with PBMC. In addition, the 50% effective concentration (EC50) with L1210 [2] turned out to be 507 µM. For the same compound, in the series with L1210 [3], the “viability, % of control” value worked out at 43.1%. Moreover, in the series with L1210 [4], the “Ratio IC50/EC50” value worked out at 9.3. For the same compound, in the series on L1210 [5], the growth, % of control at 500 µg/mL was 4.65%.
`CC(=O)N[C@H]1[C@@H](OCc2ccccc2)O[C@H](CO)[C@@H](O)[C@@H]1O[C@H](C)C(=O)N[C@H](CO)C(=O)N[C@H](CCC(=O)NCCNc1ncnc2c1ncn2[C@@H]1O[C@H](CO)[C@@H](O)[C@H]1O)C(N)=O`: the IC50 is 218 µM with L1210 [1] and 324 µM with PBMC. In addition, the EC50 with L1210 [2] was 497 µM. For the same compound, in the series on L1210 [3], the “viability, % of control” value was 28.09%. Moreover, the “Ratio IC50/EC50” value with L1210 [4] came out at 5.5. Also, the growth, % of control at 500 µg/mL in the series on L1210 [5] was 5.14%.
With `CC(=O)N[C@H]1[C@@H](OCc2ccccc2)O[C@H](CO)[C@@H](O)[C@@H]1O[C@H](C)C(=O)N[C@@H](C(=O)N[C@H](CCC(=O)NCCNc1ncnc2c1ncn2[C@@H]1O[C@H](CO)[C@@H](O)[C@H]1O)C(N)=O)C(C)C`, the IC50 with L1210 [1] was 161 µM; in the series on PBMC, 234 µM. The EC50 in the series with L1210 [2] stood at 458 µM. In addition, the “viability, % of control” value in the series on L1210 [3] is on record as -0.87%. Also, the “Ratio IC50/EC50” value in the series with L1210 [4] is -0.3. Moreover, the growth, % of control at 500 µg/mL in the series with L1210 [5] was 2.9%.
Take `CC(=O)N[C@H]1[C@@H](OCc2ccccc2)O[C@H](CO)[C@@H](O)[C@@H]1OCC(=O)N[C@H](C)C(=O)N[C@H](CCC(=O)NCCNc1ncnc2c1ncn2[C@@H]1O[C@H](CO)[C@@H](O)[C@H]1O)C(N)=O`: the figures for the IC50 with L1210 [1] and in the series on PBMC were 270 µM and 298 µM, respectively. For the same compound, the EC50 with L1210 [2] came out at 500 µM. In addition, the “viability, % of control” value in the series on L1210 [3] is on record as 29.84%. The “Ratio IC50/EC50” value in the series on L1210 [4] turned out to be 44.7. Moreover, in the series with L1210 [5], the growth, % of control at 500 µg/mL worked out at 0.67%.
Consider `CC(=O)N[C@H]1[C@@H](OCc2ccccc2)O[C@H](CO)[C@@H](O)[C@@H]1OCC(=O)N[C@H](CO)C(=O)N[C@H](CCC(=O)NCCNc1ncnc2c1ncn2[C@@H]1O[C@H](CO)[C@@H](O)[C@H]1O)C(N)=O`, for which the figures for the half-maximal inhibitory concentration (IC50) with L1210 [1] and in the series with PBMC were 570 µM and 479 µM, respectively. Also, the EC50 in the series on L1210 [2] stood at 541 µM. In the series with L1210 [3], the “viability, % of control” value is on record as 64.95%. Also, the “Ratio IC50/EC50” value in the series on L1210 [4] is recorded as 2.1. Moreover, the growth, % of control at 500 µg/mL in the series with L1210 [5] worked out at 31.6%.
`CC(=O)N[C@H]1[C@@H](OCc2ccccc2)O[C@H](CO)[C@@H](O)[C@@H]1OCC(=O)N[C@@H](C(=O)N[C@H](CCC(=O)NCCNc1ncnc2c1ncn2[C@@H]1O[C@H](CO)[C@@H](O)[C@H]1O)C(N)=O)C(C)C`: the cytotoxicity at 72 h, 0.5 mg/ml in series [6] is under 50%. For the same compound, the results for the IC50 in the series on L1210 [1] and in the series on PBMC were 285 µM and 561 µM, respectively. For the same compound, in the series on L1210 [2], the EC50 is 512 µM. Also, in the series on L1210 [3], the “viability, % of control” value is reported as 31.65%. Moreover, the “Ratio IC50/EC50” value in the series with L1210 [4] was determined as 2.6. Besides, the growth, % of control at 500 µg/mL in the series on L1210 [5] was 12.3%.
Regarding `CC(=O)N[C@H]1[C@@H](OCc2ccccc2)O[C@H](CO)[C@@H](O)[C@@H]1OCC(=O)N[C@@H](C)C(=O)N[C@H](CCC(=O)NCCCCCC(=O)Nc1ncnc2c1ncn2[C@@H]1O[C@H](CO)[C@@H](O)[C@H]1O)C(N)=O`, the cytotoxicity at 72 h, 0.5 mg/ml in series [6] was under 50%. Also, the IC50 with L1210 [1] and in the series with PBMC was 537 µM each time. Also, the EC50 in the series on L1210 [2] was 537 µM. Moreover, in the series with L1210 [3], the “viability, % of control” value came to 70.64%. Besides, the “Ratio IC50/EC50” value in the series with L1210 [4] is given as 0.4. Further, the growth, % of control at 500 µg/mL in the series with L1210 [5] worked out at 178%.
For the compound `CC(=O)N[C@H]1[C@@H](OCc2ccccc2)O[C@H](CO)[C@@H](O)[C@@H]1O[C@H](C)C(=O)N[C@@H](C)C(=O)N[C@H](CCC(=O)NCCCCCC(=O)Nc1ncnc2c1ncn2[C@@H]1O[C@H](CO)[C@@H](O)[C@H]1O)C(N)=O`, the cytotoxicity at 72 h, 0.5 mg/ml in series [6] was under 50%. The IC50 in the series on L1210 [1] and in the series with PBMC was 529 µM in each case. For the same compound, the EC50 in the series on L1210 [2] was found to be 529 µM. For the same compound, the “viability, % of control” value in the series on L1210 [3] was 65.58%. For the same compound, the “Ratio IC50/EC50” value in the series with L1210 [4] came to 0.3. The growth, % of control at 500 µg/mL in the series on L1210 [5] amounted to 192%.
Take `CC(=O)N[C@@H]1[C@@H](O[C@H](C)C(=O)N[C@H](C)C(=O)N[C@H](CCC(=O)O)C(N)=O)[C@H](O)[C@@H](CO)O[C@@H]1O`: in series [6], the cytotoxicity at 72 h, 0.5 mg/ml is under 50%. For the same compound, the concentration for half-maximal inhibition (IC50) in the series with L1210 [1] and in the series with PBMC was 1010 µM in each case. In addition, the EC50 with L1210 [2] was 1010 µM. The “viability, % of control” value in the series on L1210 [3] came to 64.93%. In addition, in the series on L1210 [4], the “Ratio IC50/EC50” value was determined as 0.4. The growth, % of control at 500 µg/mL in the series on L1210 [5] turned out to be 146%.
On to `Nc1ncnc2c1ncn2[C@@H]1O[C@H](CO)[C@@H](O)[C@H]1O` [ADENOSINE], for which, in series [6], the cytotoxicity at 72 h, 0.5 mg/ml is under 50%. For the same compound, the figures for the IC50 in the series on L1210 [1] and in the series on PBMC were 991 µM and 1870 µM, respectively. Moreover, the EC50 in the series on L1210 [2] was found to be 1870 µM. For the same compound, the “viability, % of control” value with L1210 [3] amounted to 32.79%. Further, the “Ratio IC50/EC50” value in the series with L1210 [4] stood at 0.2. In addition, the growth, % of control at 500 µg/mL with L1210 [5] stood at 132%.
